molecular target: T1, M-phase inducer phosphatase 1 (Homo sapiens, UniProt P30304); assay: Inhibition of CDC25A
T1 sequence (P30304 whole entry): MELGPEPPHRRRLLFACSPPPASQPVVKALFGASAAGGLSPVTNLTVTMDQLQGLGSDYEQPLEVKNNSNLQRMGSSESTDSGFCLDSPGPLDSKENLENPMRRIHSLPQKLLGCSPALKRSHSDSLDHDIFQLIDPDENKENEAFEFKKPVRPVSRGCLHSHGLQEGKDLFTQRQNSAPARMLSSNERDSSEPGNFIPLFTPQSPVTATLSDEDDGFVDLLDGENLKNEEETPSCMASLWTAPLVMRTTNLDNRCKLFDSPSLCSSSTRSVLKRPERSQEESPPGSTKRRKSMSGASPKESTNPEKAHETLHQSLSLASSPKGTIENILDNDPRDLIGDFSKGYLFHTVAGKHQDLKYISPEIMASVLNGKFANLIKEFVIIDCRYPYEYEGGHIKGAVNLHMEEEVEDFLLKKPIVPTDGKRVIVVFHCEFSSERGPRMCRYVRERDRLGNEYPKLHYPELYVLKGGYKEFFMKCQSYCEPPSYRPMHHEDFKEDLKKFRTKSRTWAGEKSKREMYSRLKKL

SMILES | IC50
CCCCCCCCCCCCCCCC(NCc1ccc(F)cc1)=C1C(=O)OC(CO)C1=O (mixture of isomers) | 10.7 µM
CCCCCCCCCCCCCCCC(NCc1ccc(O)cc1)=C1C(=O)OC(CO)C1=O (mixture of isomers) | 6.86 µM
CCCCCCCCCCCCCCCC(NCc1ccc(OC)cc1)=C1C(=O)OC(CO)C1=O (mixture of isomers) | 11.7 µM
CCCCCCCCCCCCCCCC(NCc1ccccc1Cl)=C1C(=O)OC(CO)C1=O (mixture of isomers) | 12.3 µM
CCCCCCCCCCCCCCCC(NCc1ccccc1OC)=C1C(=O)OC(CO)C1=O (mixture of isomers) | 19 µM

More lines, in order of falling IC50, values ahead:

IC50 | SMILES
12.6 µM | CCCCCCCCCCCCCCCC(NCc1ccccc1F)=C1C(=O)OC(CO)C1=O (mixture of isomers)
8.5 µM | CCCCCCCCCCCCCCCC(NCc1ccccc1N(C)C)=C1C(=O)OC(CO)C1=O (mixture of isomers)

molecular target: T2, M-phase inducer phosphatase 2 (Homo sapiens, UniProt P30305); assay: Inhibition of CDC25B
T2 sequence (P30305 whole entry): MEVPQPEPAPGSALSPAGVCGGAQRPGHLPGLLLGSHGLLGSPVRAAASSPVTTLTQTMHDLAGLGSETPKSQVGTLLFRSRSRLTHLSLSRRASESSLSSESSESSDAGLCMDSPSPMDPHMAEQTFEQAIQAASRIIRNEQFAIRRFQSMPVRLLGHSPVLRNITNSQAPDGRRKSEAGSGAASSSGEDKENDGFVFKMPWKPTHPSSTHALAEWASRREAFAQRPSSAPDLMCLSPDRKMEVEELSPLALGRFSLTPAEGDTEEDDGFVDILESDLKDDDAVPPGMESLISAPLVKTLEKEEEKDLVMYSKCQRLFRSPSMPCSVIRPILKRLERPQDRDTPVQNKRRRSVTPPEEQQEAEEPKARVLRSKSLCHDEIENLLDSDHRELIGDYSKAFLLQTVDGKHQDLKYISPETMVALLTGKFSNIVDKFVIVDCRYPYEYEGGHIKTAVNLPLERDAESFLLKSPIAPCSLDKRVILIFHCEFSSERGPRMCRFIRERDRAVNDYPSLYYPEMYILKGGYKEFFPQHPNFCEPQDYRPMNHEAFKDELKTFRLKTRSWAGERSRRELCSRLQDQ

IC50 | SMILES
13.1 µM | CCCCCCCCCCCCCCCC(NCc1ccc(F)cc1)=C1C(=O)OC(CO)C1=O (mixture of isomers)
4.23 µM | CCCCCCCCCCCCCCCC(NCc1ccc(O)cc1)=C1C(=O)OC(CO)C1=O (mixture of isomers)
23.8 µM | CCCCCCCCCCCCCCCC(NCc1ccc(OC)cc1)=C1C(=O)OC(CO)C1=O (mixture of isomers)
13.5 µM | CCCCCCCCCCCCCCCC(NCc1ccccc1Cl)=C1C(=O)OC(CO)C1=O (mixture of isomers)
12.1 µM | CCCCCCCCCCCCCCCC(NCc1ccccc1OC)=C1C(=O)OC(CO)C1=O (mixture of isomers)
5.75 µM | CCCCCCCCCCCCCCCC(NCc1ccccc1N(C)C)=C1C(=O)OC(CO)C1=O (mixture of isomers)

molecular target: T3, M-phase inducer phosphatase 3 (Homo sapiens, UniProt P30307); assay: Inhibition of CDC25C
T3 sequence (P30307 whole entry): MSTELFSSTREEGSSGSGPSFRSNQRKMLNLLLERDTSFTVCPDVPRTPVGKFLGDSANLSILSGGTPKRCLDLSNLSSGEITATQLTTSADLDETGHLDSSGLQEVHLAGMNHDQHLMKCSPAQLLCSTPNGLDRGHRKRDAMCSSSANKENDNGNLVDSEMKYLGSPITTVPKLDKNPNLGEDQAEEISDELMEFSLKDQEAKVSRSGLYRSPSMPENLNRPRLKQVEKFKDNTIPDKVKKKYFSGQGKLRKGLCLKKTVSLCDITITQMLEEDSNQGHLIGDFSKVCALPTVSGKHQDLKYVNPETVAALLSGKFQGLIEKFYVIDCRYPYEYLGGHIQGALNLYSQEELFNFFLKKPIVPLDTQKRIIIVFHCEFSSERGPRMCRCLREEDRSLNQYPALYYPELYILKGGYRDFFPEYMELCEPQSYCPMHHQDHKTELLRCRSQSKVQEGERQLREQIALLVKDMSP

SMILES | IC50
CCCCCCCCCCCCCCCC(NCc1ccc(F)cc1)=C1C(=O)OC(CO)C1=O (mixture of isomers) | > 100 µM
CCCCCCCCCCCCCCCC(NCc1ccc(O)cc1)=C1C(=O)OC(CO)C1=O (mixture of isomers) | 44.1 µM
CCCCCCCCCCCCCCCC(NCc1ccc(OC)cc1)=C1C(=O)OC(CO)C1=O (mixture of isomers) | > 100 µM
CCCCCCCCCCCCCCCC(NCc1ccccc1Cl)=C1C(=O)OC(CO)C1=O (mixture of isomers) | > 100 µM
CCCCCCCCCCCCCCCC(NCc1ccccc1OC)=C1C(=O)OC(CO)C1=O (mixture of isomers) | > 100 µM

Now from value to compound:

IC50 | SMILES
47.1 µM | CCCCCCCCCCCCCCCC(NCc1ccccc1F)=C1C(=O)OC(CO)C1=O (mixture of isomers)
> 100 µM | CCCCCCCCCCCCCCCC(NCc1ccccc1N(C)C)=C1C(=O)OC(CO)C1=O (mixture of isomers)

molecular target: Dual specificity protein phosphatase 3 (Homo sapiens, UniProt P51452); assay: Inhibition of VHR
Sequence (P51452 whole entry): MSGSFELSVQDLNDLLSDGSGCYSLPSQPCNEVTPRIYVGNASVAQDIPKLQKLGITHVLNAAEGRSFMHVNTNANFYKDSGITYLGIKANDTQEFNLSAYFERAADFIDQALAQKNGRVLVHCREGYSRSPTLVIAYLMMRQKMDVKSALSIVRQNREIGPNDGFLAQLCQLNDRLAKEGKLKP

SMILES | IC50
CCCCCCCCCCCCCCCC(NCc1ccc(O)cc1)=C1C(=O)OC(CO)C1=O (mixture of isomers) | 9.93 µM
CCCCCCCCCCCCCCCC(NCc1ccc(OC)cc1)=C1C(=O)OC(CO)C1=O (mixture of isomers) | 6.77 µM
CCCCCCCCCCCCCCCC(NCc1ccccc1Cl)=C1C(=O)OC(CO)C1=O (mixture of isomers) | 10.2 µM
CCCCCCCCCCCCCCCC(NCc1ccccc1OC)=C1C(=O)OC(CO)C1=O (mixture of isomers) | 6.6 µM

Next, values leading:

IC50 | SMILES
8.93 µM | CCCCCCCCCCCCCCCC(NCc1ccccc1F)=C1C(=O)OC(CO)C1=O (mixture of isomers)
5.19 µM | CCCCCCCCCCCCCCCC(NCc1ccccc1N(C)C)=C1C(=O)OC(CO)C1=O (mixture of isomers)

molecular target: T4, Dual specificity protein phosphatase 1 (Homo sapiens, UniProt P28562); assay: Inhibition of MKP1
T4 sequence (P28562 whole entry): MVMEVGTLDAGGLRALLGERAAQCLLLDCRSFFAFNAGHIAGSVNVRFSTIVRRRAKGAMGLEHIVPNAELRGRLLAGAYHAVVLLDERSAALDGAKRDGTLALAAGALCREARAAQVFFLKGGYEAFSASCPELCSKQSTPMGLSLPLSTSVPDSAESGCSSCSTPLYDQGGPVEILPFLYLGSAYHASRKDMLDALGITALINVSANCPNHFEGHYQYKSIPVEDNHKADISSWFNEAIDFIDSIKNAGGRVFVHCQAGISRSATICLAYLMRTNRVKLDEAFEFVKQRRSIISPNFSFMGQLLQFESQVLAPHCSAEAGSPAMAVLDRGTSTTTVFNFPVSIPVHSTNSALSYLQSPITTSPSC

SMILES | IC50
CCCCCCCCCCCCCCCC(NCc1ccc(F)cc1)=C1C(=O)OC(CO)C1=O (mixture of isomers) | > 100 µM
CCCCCCCCCCCCCCCC(NCc1ccc(O)cc1)=C1C(=O)OC(CO)C1=O (mixture of isomers) | > 100 µM
CCCCCCCCCCCCCCCC(NCc1ccc(OC)cc1)=C1C(=O)OC(CO)C1=O (mixture of isomers) | > 100 µM
CCCCCCCCCCCCCCCC(NCc1ccccc1Cl)=C1C(=O)OC(CO)C1=O (mixture of isomers) | > 100 µM
CCCCCCCCCCCCCCCC(NCc1ccccc1OC)=C1C(=O)OC(CO)C1=O (mixture of isomers) | > 100 µM

The next lines start with the values.

IC50 | SMILES
> 100 µM | CCCCCCCCCCCCCCCC(NCc1ccccc1F)=C1C(=O)OC(CO)C1=O (mixture of isomers)
> 100 µM | CCCCCCCCCCCCCCCC(NCc1ccccc1N(C)C)=C1C(=O)OC(CO)C1=O (mixture of isomers)

molecular target: T5, Dual specificity protein phosphatase 6 (Homo sapiens, UniProt Q16828); assay: Inhibition of MKP3
T5 sequence (Q16828 whole entry): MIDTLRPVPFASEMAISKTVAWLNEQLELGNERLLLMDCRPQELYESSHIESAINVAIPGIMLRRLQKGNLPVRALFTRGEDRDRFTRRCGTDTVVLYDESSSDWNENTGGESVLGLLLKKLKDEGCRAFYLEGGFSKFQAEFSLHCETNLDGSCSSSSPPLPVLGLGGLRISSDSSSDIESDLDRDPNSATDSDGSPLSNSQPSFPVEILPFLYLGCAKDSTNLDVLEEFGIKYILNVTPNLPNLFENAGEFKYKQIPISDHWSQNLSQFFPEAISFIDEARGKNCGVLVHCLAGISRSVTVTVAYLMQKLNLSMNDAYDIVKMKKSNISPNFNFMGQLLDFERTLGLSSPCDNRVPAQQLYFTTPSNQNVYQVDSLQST

SMILES | IC50
CCCCCCCCCCCCCCCC(NCc1ccc(F)cc1)=C1C(=O)OC(CO)C1=O (mixture of isomers) | > 100 µM
CCCCCCCCCCCCCCCC(NCc1ccc(O)cc1)=C1C(=O)OC(CO)C1=O (mixture of isomers) | > 100 µM
CCCCCCCCCCCCCCCC(NCc1ccc(OC)cc1)=C1C(=O)OC(CO)C1=O (mixture of isomers) | > 100 µM
CCCCCCCCCCCCCCCC(NCc1ccccc1Cl)=C1C(=O)OC(CO)C1=O (mixture of isomers) | > 100 µM
CCCCCCCCCCCCCCCC(NCc1ccccc1OC)=C1C(=O)OC(CO)C1=O (mixture of isomers) | > 100 µM

Now from value to compound:

IC50 | SMILES
> 100 µM | CCCCCCCCCCCCCCCC(NCc1ccccc1F)=C1C(=O)OC(CO)C1=O (mixture of isomers)
> 100 µM | CCCCCCCCCCCCCCCC(NCc1ccccc1N(C)C)=C1C(=O)OC(CO)C1=O (mixture of isomers)

molecular target: T6, Tyrosine-protein phosphatase non-receptor type 1 (Homo sapiens, UniProt P18031); assay: Inhibition of PTP1B
T6 sequence (P18031 whole entry): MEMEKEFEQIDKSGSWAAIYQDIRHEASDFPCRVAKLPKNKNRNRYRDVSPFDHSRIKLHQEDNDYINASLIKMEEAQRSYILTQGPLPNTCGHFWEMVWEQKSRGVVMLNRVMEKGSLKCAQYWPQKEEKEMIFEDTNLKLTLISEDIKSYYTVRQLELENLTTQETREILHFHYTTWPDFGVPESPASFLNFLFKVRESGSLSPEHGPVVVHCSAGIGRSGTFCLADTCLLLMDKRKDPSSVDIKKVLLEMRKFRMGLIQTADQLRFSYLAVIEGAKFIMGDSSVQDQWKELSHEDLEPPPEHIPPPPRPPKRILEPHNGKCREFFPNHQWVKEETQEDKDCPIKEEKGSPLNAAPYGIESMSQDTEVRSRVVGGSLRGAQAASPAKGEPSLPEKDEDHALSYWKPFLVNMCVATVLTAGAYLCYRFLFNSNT

SMILES | IC50
CCCCCCCCCCCCCCCC(NCc1ccc(F)cc1)=C1C(=O)OC(CO)C1=O (mixture of isomers) | > 100 µM
CCCCCCCCCCCCCCCC(NCc1ccc(O)cc1)=C1C(=O)OC(CO)C1=O (mixture of isomers) | 68.1 µM
CCCCCCCCCCCCCCCC(NCc1ccc(OC)cc1)=C1C(=O)OC(CO)C1=O (mixture of isomers) | > 100 µM
CCCCCCCCCCCCCCCC(NCc1ccccc1Cl)=C1C(=O)OC(CO)C1=O (mixture of isomers) | > 100 µM
CCCCCCCCCCCCCCCC(NCc1ccccc1OC)=C1C(=O)OC(CO)C1=O (mixture of isomers) | > 100 µM

More lines, now with the values ahead:

IC50 | SMILES
> 100 µM | CCCCCCCCCCCCCCCC(NCc1ccccc1F)=C1C(=O)OC(CO)C1=O (mixture of isomers)
> 100 µM | CCCCCCCCCCCCCCCC(NCc1ccccc1N(C)C)=C1C(=O)OC(CO)C1=O (mixture of isomers)

— ChEMBL document CHEMBL2062477, “Dual-Specificity Phosphatase CDC25A/B Inhibitor Identified from a Focused Library with Nonelectrophilic Core Structure” (ACS Med Chem Lett, 2012)
